# Measurements taken from patent US10350188B2, “Use of Neu1 sialidase inhibitors in the treatment of cancer” (priority 2011, dated 2019).
# Tests used:
# MiaPaCa-2 cells = test: Cell viability of MiaPaCa-2 pancreatic cancer cells in culture (MTT or WST-1, 72 hrs); type: cell-based, human; conditions: for LD50 MiaPaCa-2: oseltamivir phosphate analogues (TD), WST-1, 72 hrs; for Chemo-drug LD50 / Chemo-drug sensitivity with oseltamivir phosphate (fold increase): MiaPaCa-2; for Chemo-drug LD50: MTT, 72 hrs
# PANC-1 cells = test: Cell viability of PANC-1 pancreatic cancer cells in culture (MTT or WST-1, 72 hrs); type: cell-based, human; conditions: for LD50 PANC-1: oseltamivir phosphate analogues (TD), WST-1, 72 hrs; for Chemo-drug LD50 / Chemo-drug sensitivity with oseltamivir phosphate (fold increase): PANC-1; for Chemo-drug LD50: MTT, 72 hrs
# BxPC-3 cells = test: Cell viability of BxPC-3 pancreatic cancer cells in culture (MTT or WST-1, 72 hrs); type: cell-based, human; conditions: BxPC-3; for Chemo-drug LD50: MTT, 72 hrs
# Neu1 sialidase = Neu1 sialidase (Mus musculus, UniProt O35657); test: LPS-induced Neu1 sialidase activity in live BMA macrophage cells (4-MUNANA); type: cell-based; set-up: endogenous in cells; host or cells: BMA macrophage cells; conditions: LPS-induced Neu1 sialidase activity, live BMA macrophage cells
# Method: TLR-expressing BMA macrophage cells were grown on 12 mm circular glass slides in culture media containing DMEM supplemented with 10% fetal calf serum. […] Fluorescent images were taken after 2-3 minutes using epi-fluorescent microscopy (Zeiss Imager M2, 40× objective).
# This recently developed assay was used to detect sialidase activity on the surface of viable cells. […] The inhibitory potency of a series of amide-linked C9 modified DANA (2-deoxy-2,3-dehydro-D-N-acetylneuraminic add) analogues on lipopolysaccharide (LPS)-induced Neu1 sialidase activity was assessed in live BMA macrophage cells.
# [1] = tested on: MiaPaCa-2-eGFP pancreatic cancer cells implanted in RAG2/Cγ double mutant Balbc xenograft mice; test: MiaPaCa-2-eGFP pancreatic cancer xenograft in RAG2/Cγ double mutant Balbc mice; type: in vivo, mouse; conditions: for Liver metastasis percent inhibition: vs untreated day 51
# Method: Tumour measurements were taken twice a week.
# MiaPaCa-2-eGFP pancreatic cancer cells at 1.5×10^6 in 0.2 mL were implanted subcutaneously in the right back flank of these mice. Each mouse in the study was identified by an ear punch number. Twice a week each mouse following implantation of the cancer cells was monitored for tumour volume growth (length and width) at the site of implantation, body weights, and body condition scoring. Scoring the body condition of rodents is a non-invasive method for assessing health and establishing endpoints for adults where body weight is not a viable monitoring tool, such as with tumour models. Body condition scores (BC) range from 1(emaciation) to 5 (obesity). An anticipated BCS of 2—under conditioned—or lower, requires justification in the protocol. Scores are determined by frequent visual and hands-on examination of each animal. The hands-on evaluation is done by gently holding the mouse by the base of the tail and passing a finger over the sacroiliac bones. The findings are matched to the descriptions and diagrams of BC ranges to determine a score. Scores are documented for each animal.
# [2] = co-treatment oseltamivir phosphate 730 μM
# [3] = co-treatment oseltamivir phosphate 1460 μM
# [4] = chemo-drug + oseltamivir phosphate 10 mg/kg daily, Altima day 70, Abraxane day […]
# [5] = chemo-drug alone, Altima 100 mg/kg day 70, Abraxane 200 mg/kg day 87
# [6] = day 48, chemo-drug (alimta 100, abraxane 200 mg/kg) + oseltamivir phosphate 10 mg/kg daily i.p.
# [7] = day 48, chemo-drug alone (alimta 100 mg/kg, abraxane 200 mg/kg i.p.)
# [8] = day 63, chemo-drug (alimta 100, abraxane 200 mg/kg) + oseltamivir phosphate 10 mg/kg daily
# [9] = day 63, chemo-drug alone (alimta 100 mg/kg, abraxane 200 mg/kg)
# [10] = day 62, tamoxifen 0.1 mg/kg alone or with oseltamivir phosphate 100 mg/kg daily
# [11] = day 66, tamoxifen 0.1 mg/kg alone or with oseltamivir phosphate 100 mg/kg daily
structure (smiles),measurement,setting,value
CC(=O)N[C@@H]1CC[C@@](O)(C(=O)[O-])[C@H]2OC(C)(C)O[C@@H]12.[Na+],LD50 MiaPaCa-2,MiaPaCa-2 cells,2.1 µM
same,LD50 PANC-1,PANC-1 cells,>1000 µM
CC(=O)N[C@H]1[C@@H]2OC(C)(C)O[C@@H]2C(C(=O)[O-])=C[C@H]1O.[Na+],LD50 MiaPaCa-2,MiaPaCa-2 cells,2.8 µM
same,LD50 PANC-1,PANC-1 cells,349 µM
"O=c1[nH]cc(F)c(=O)[nH]1 [5-fluoruracil, Fluorouracil]",Chemo-drug LD50,MiaPaCa-2 cells; [2],0.6 µM
same,Chemo-drug LD50,MiaPaCa-2 cells; [3],0.078 µM
same,Chemo-drug LD50,MiaPaCa-2 cells; oseltamivir phosphate 0 μM,2.20 µM
same,Chemo-drug sensitivity with oseltamivir phosphate (fold increase),MiaPaCa-2 cells; oseltamivir phosphate 730 μM,4 fold increase
same,Chemo-drug sensitivity with oseltamivir phosphate (fold increase),MiaPaCa-2 cells; oseltamivir phosphate 1460 μM,28 fold increase
same,Chemo-drug LD50,BxPC-3 cells; [2],0.78 µM
same,Chemo-drug LD50,BxPC-3 cells; [3],0.078 µM
same,Chemo-drug LD50,BxPC-3 cells; oseltamivir phosphate 0 μM,12.5 µM
same,Chemo-drug sensitivity with oseltamivir phosphate (fold increase),BxPC-3 cells; oseltamivir phosphate 730 μM,16 fold increase
same,Chemo-drug sensitivity with oseltamivir phosphate (fold increase),BxPC-3 cells; oseltamivir phosphate 1460 μM,160 fold increase
same,Chemo-drug LD50,PANC-1 cells; [2],0.8 µM
same,Chemo-drug LD50,PANC-1 cells; [3],0.078 µM
same,Chemo-drug LD50,PANC-1 cells; oseltamivir phosphate 0 μM,3.1 µM
same,Chemo-drug sensitivity with oseltamivir phosphate (fold increase),PANC-1 cells; oseltamivir phosphate 730 μM,4 fold increase
same,Chemo-drug sensitivity with oseltamivir phosphate (fold increase),PANC-1 cells; oseltamivir phosphate 1460 μM,40 fold increase
"CCOC1C(C(=O)[O-])=C[C@@H](O)[C@@H](NC(C)=O)[C@@H]1O.[Na+] (stereo partly shown) [A1, Sodium; 4-acetylamino-6-ethoxy-3,5-dihydroxy-cyclohex-1-enecarboxylate]",LD50 MiaPaCa-2,MiaPaCa-2 cells,132 µM
same,LD50 PANC-1,PANC-1 cells,848 µM
"CC(=O)N[C@H]1[C@H](O)C=C(C(=O)[O-])C[C@@H]1N.[Na+] [A2, Sodium; 4-acetylamino-5-amino-3-hydroxy-cyclohex-1-enecarboxylate]",LD50 MiaPaCa-2,MiaPaCa-2 cells,1.97 µM
same,LD50 PANC-1,PANC-1 cells,0.01 µM
"CC(=O)N[C@@H]1/C(=N/O)C=C(C(=O)[O-])[C@H]2OC(C)(C)O[C@H]21.[Na+] [A5, Sodium; 7-acetylamino-6-hydroxyimino-2,2-dimethyl-3a,6,7,7a-tetrahydro-benzo[1,3]dioxole-4-carboxylate]",LD50 MiaPaCa-2,MiaPaCa-2 cells,24 µM
same,LD50 PANC-1,PANC-1 cells,3 µM
"CCC(CC)O[C@@H]1C=C(C(=O)[O-])[C@H]2OC(C)(C)O[C@H]2[C@H]1NC(C)=O.[Na+] [A6, Sodium; 7-acetylamino-6-(1-ethyl-propoxy)-2,2-dimethyl-3a,6,7,7a-tetrahydro-benzo[1,3]dioxole-4-carboxylate]",LD50 MiaPaCa-2,MiaPaCa-2 cells,>2000 µM
same,LD50 PANC-1,PANC-1 cells,>2000 µM
CCCC(=O)NC[C@H](O)[C@H](O)C1OC(C(=O)O)=CC(O)[C@H]1NC(C)=O (stereo partly shown) [B1],IC50,Neu1 sialidase,0.0138 µM
CCC(C)C(=O)NC[C@H](O)[C@H](O)C1OC(C(=O)O)=CC(O)[C@H]1NC(C)=O (stereo partly shown) [B2],IC50,Neu1 sialidase,29.7 µM
CC(=O)N[C@@H]1C(O)C=C(C(=O)O)OC1[C@@H](O)[C@@H](O)CNC(=O)C1CCCCC1 (stereo partly shown) [B3],IC50,Neu1 sialidase,0.0039 µM
CC(=O)NC[C@H](O)[C@H](O)C1OC(C(=O)O)=CC(O)[C@H]1NC(C)=O (stereo partly shown) [B4],IC50,Neu1 sialidase,2.98 µM
CCCCC(=O)NC[C@H](O)[C@H](O)C1OC(C(=O)O)=CC(O)[C@H]1NC(C)=O (stereo partly shown) [B5],IC50,Neu1 sialidase,1.45 µM
CC(=O)N[C@@H]1C(O)C=C(C(=O)O)OC1[C@@H](O)[C@@H](O)CNC(=O)C1CCCC1 (stereo partly shown) [B6],IC50,Neu1 sialidase,76.6 µM
CC(=O)N[C@@H]1C(O)C=C(C(=O)O)OC1[C@@H](O)[C@@H](O)CNC(=O)C(C)C (stereo partly shown) [B7],IC50,Neu1 sialidase,683 µM
CCC(CC)C(=O)NC[C@H](O)[C@H](O)C1OC(C(=O)O)=CC(O)[C@H]1NC(C)=O (stereo partly shown) [B8],IC50,Neu1 sialidase,1050 µM
CC(=O)N[C@@H]1C(O)C=C(C(=O)O)OC1[C@@H](O)[C@@H](O)CNC(=O)C1CC1 (stereo partly shown) [B9],IC50,Neu1 sialidase,1120 µM
CC(=O)N[C@@H]1C(O)C=C(C(=O)O)OC1[C@@H](O)[C@@H](O)CNC(=O)C(C)(C)C (stereo partly shown) [B10],IC50,Neu1 sialidase,411 µM
"Nc1nc2[nH]cc(CCc3ccc(C(=O)N[C@@H](CCC(=O)O)C(=O)O)cc3)c2c(=O)[nH]1 [alimta, Pemetrexed]",Survival of tumour bearing mice,"[1]; chemo-drug (Alimta 100, Abraxane 200 mg/kg) + oseltamivir phosphate 10 mg/kg daily, untreated control day 51",70 days
same,Liver Metastasis (avg no. nodules),"[1]; chemo-drug + oseltamivir phosphate 10 mg/kg daily, Altima 100 mg/kg day 70, Abraxane 200 mg/kg day […]",3
same,"Metastases (size, mm)",[1]; [4],0.2-0.5 mm
same,Liver metastasis percent inhibition,[1]; [4],91%
same,Liver Metastasis (avg no. nodules),[1]; [5],5
same,"Metastases (size, mm)",[1]; [5],0.2-1.0 mm
same,Liver metastasis percent inhibition,[1]; [5],85%
same,Survival of tumour bearing mice,"[1]; chemo-drug monotherapy (Alimta 100 mg/kg, Abraxane 200 mg/kg), untreated control day 51",70 days
same,% Inhibition To untreated,[1]; [6],77%
same,Tumour volume,[1]; [6],189 mm^3
same,% Inhibition To untreated,"[1]; day 48, chemo-drug (alimta 100, abraxane 200 mg/kg) + oseltamivir phosphate 10 mg/kg daily i.p., listed as Almita",77%
same,% Inhibition To untreated,[1]; [7],72%
same,Tumour volume,[1]; [7],225 mm^3
same,% Inhibition To untreated,[1]; [8],3%
same,Tumour volume,[1]; [8],787 mm^3
same,% Inhibition To untreated,[1]; [9],40%
same,Tumour volume,[1]; [9],482 mm^3
"CC/C(=C(\c1ccccc1)c1ccc(OCCN(C)C)cc1)c1ccccc1 [tamoxifen, Tamoxifen]",Chemo-drug LD50,MiaPaCa-2 cells; [2],0.8 µM
same,Chemo-drug LD50,MiaPaCa-2 cells; [3],0.078 µM
same,Chemo-drug LD50,MiaPaCa-2 cells; oseltamivir phosphate 0 μM,7.0 µM
same,Chemo-drug sensitivity with oseltamivir phosphate (fold increase),MiaPaCa-2 cells; oseltamivir phosphate 730 μM,9 fold increase
same,Chemo-drug sensitivity with oseltamivir phosphate (fold increase),MiaPaCa-2 cells; oseltamivir phosphate 1460 μM,90 fold increase
same,Chemo-drug LD50,BxPC-3 cells; [2],3 µM
same,Chemo-drug LD50,BxPC-3 cells; [3],0.078 µM
same,Chemo-drug LD50,BxPC-3 cells; oseltamivir phosphate 0 μM,9 µM
same,Chemo-drug sensitivity with oseltamivir phosphate (fold increase),BxPC-3 cells; oseltamivir phosphate 730 μM,3 fold increase
same,Chemo-drug sensitivity with oseltamivir phosphate (fold increase),BxPC-3 cells; oseltamivir phosphate 1460 μM,115 fold increase
same,Chemo-drug LD50,PANC-1 cells; [2],0.8 µM
same,Chemo-drug LD50,PANC-1 cells; [3],0.078 µM
same,Chemo-drug LD50,PANC-1 cells; oseltamivir phosphate 0 μM,12.5 µM
same,Chemo-drug sensitivity with oseltamivir phosphate (fold increase),PANC-1 cells; oseltamivir phosphate 730 μM,16 fold increase
same,Chemo-drug sensitivity with oseltamivir phosphate (fold increase),PANC-1 cells; oseltamivir phosphate 1460 μM,160 fold increase
same,% Inhibition To untreated,"[1]; day 59, tamoxifen 0.1 mg/kg alone or with oseltamivir phosphate 100 mg/kg daily",57%
same,Tumour volume,"[1]; day 59, tamoxifen 0.1 mg/kg i.p. alone or with oseltamivir phosphate 100 mg/kg i.p. daily",960 ± 208 (4) mm^3
same,% Inhibition To untreated,[1]; [10],21%
same,Tumour volume,[1]; [10],1738 ± 328 (4) mm^3
same,% Inhibition To untreated,[1]; [11],0%
same,Tumour volume,[1]; [11],2650 ± 360 (3) mm^3
same,Survival of tumour bearing mice,"[1]; tamoxifen 0.1 mg/kg alone or with oseltamivir phosphate 100 mg/kg daily, untreated control day 60",66 days
